Experimental data published in PubChem BioAssay (NCI).
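Dose response: 5 concentrations. Exposure: 48 h. Format: 96-well plates. Endpoint: linear interpolation; highest concentration if not reached. The concentration for 50% growth inhibition is given as GI50. The concentration for full growth arrest is given as TGI.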

Experiments:
Assay in all cases: DTP human tumour cell line panel, 48 h
SW-620 colon = test system: SW-620 colon
HCT-15 colon = test system: HCT-15 colon
OVCAR-8 ovarian = test system: OVCAR-8 ovarian
EKVX NSCLC = test system: EKVX NSCLC
ACHN renal = test system: ACHN renal
TK-10 renal = test system: TK-10 renal
NCI-H522 lung = test system: NCI-H522 lung
SF-268 CNS = test system: SF-268 CNS
SK-MEL-5 melanoma = test system: SK-MEL-5 melanoma
SN12C renal = test system: SN12C renal

Row | SMILES | TGI (SW-620 colon) | TGI (HCT-15 colon) | TGI (OVCAR-8 ovarian) | TGI (EKVX NSCLC) | TGI (ACHN renal) | TGI (TK-10 renal) | TGI (NCI-H522 lung) | TGI (SF-268 CNS) | TGI (SK-MEL-5 melanoma) | TGI (SN12C renal) | GI50 (SN12C renal) | GI50 (SW-620 colon) | GI50 (HCT-15 colon) | GI50 (OVCAR-8 ovarian) | GI50 (EKVX NSCLC) | GI50 (ACHN renal) | GI50 (TK-10 renal) | GI50 (NCI-H522 lung) | GI50 (SF-268 CNS) | GI50 (SK-MEL-5 melanoma)
1 | c1ccc2sc(SCN(C3CCCCC3)C3CCCCC3)nc2c1 | > 100 µM | > 100 µM | > 100 µM | > 100 µM | > 100 µM | > 100 µM | > 100 µM | > 100 µM | > 100 µM |  |  |  |  |  |  |  |  |  |  | 
2 | COc1cc(S(=O)(=O)Nc2nc(-c3ccc(N)cc3)cs2)ccc1Cl | > 100 µM | > 100 µM | > 100 µM | > 100 µM | > 100 µM | > 100 µM | > 100 µM | > 100 µM | > 100 µM | > 100 µM |  |  |  |  |  |  |  |  |  | 
3 | COc1ccc(OC)c(C#Cc2ccc(OC)c(C(=O)NCCc3ccc(F)cc3)c2)c1 | > 100 µM | > 100 µM | > 100 µM | > 100 µM | > 100 µM | > 100 µM | > 100 µM | > 100 µM | > 100 µM | > 100 µM | > 100 µM |  |  |  |  |  |  |  |  | 
4 | Cc1cc(N(CCCCl)CCCCl)ccc1C=Nc1cccc(Cl)c1 | 25.4 µM | 30.2 µM | 24.3 µM |  | 25.8 µM | 27.5 µM | 43.7 µM | 48.4 µM | 27.4 µM | 37.1 µM |  |  |  |  |  |  |  |  |  | 
5 | COc1ccc([C@H]2C=C(c3cc(F)c(Cl)cc3Cl)NC(=S)N2)cc1 | > 100 µM | > 100 µM | > 100 µM | > 100 µM | > 100 µM | > 100 µM | > 100 µM | > 100 µM | 27.2 µM | 57.1 µM |  |  |  |  |  |  |  |  |  | 
6 | CC(C)=CCC[C@](C)(O[C@@H]1O[C@H](CO)[C@@H](O)[C@H](O)[C@H]1O)[C@H]1CC[C@]2(C)[C@@H]1[C@H](O)C[C@@H]1[C@@]3(C)CC[C@H](O)C(C)(C)[C@@H]3[C@@H](O[C@@H]3O[C@H](CO)[C@@H](O)[C@H](O)[C@H]3O)C[C@]12C | > 100 µM | > 100 µM | > 100 µM | > 100 µM | > 100 µM | > 100 µM | > 100 µM | > 100 µM | > 100 µM | > 100 µM |  |  |  |  |  |  |  |  |  | 
7 | COc1cc2c(cc1Oc1ccc(OC)c3c1CC1c4c(cc(OC)c(OC)c4-3)CCN1C)CC1c3c(cc(OC)c(OC)c3-2)CCN1C (centres undefined) | 5.73 µM | 6.93 µM | 16.3 µM | 10.8 µM |  |  | 4.66 µM | 14.8 µM | 2.92 µM | 19.3 µM |  |  |  |  |  |  |  |  |  | 
8 | O=c1cc(O)c2ccccc2o1 | > 100 µM |  | > 100 µM | > 100 µM | > 100 µM | > 100 µM | > 100 µM | > 100 µM | > 100 µM | > 100 µM |  |  |  |  |  |  |  |  |  | 
9 | Cn1c(Sc2ccc(-c3cccnc3)n2C)ccc1-c1cccnc1 | 23.6 µM | 35.6 µM | 41.2 µM | > 56.8 µM | 44.9 µM | 32.4 µM | 23.9 µM | 23.7 µM | 30.4 µM | 39.6 µM |  |  |  |  |  |  |  |  |  | 
10 | CCOC(=O)CCC(C(=O)OCC)n1nnc2ccc(Nc3c(C)[n+]([O-])c4cc(Cl)ccc4[n+]3[O-])cc21 (centres undefined) |  | 58.2 µM | 55.5 µM | > 100 µM | > 100 µM | > 100 µM | 47 µM | 55.1 µM |  | 66.9 µM |  |  |  |  |  |  |  |  |  | 
11 | COc1cc(O)c2c(c1)C(=O)c1cc(C)cc(O)c1C2=O | > 100 µM |  | > 100 µM | > 100 µM | > 100 µM |  | > 100 µM | > 100 µM | > 100 µM | > 100 µM |  |  |  |  |  |  |  |  |  | 
12 | CCOC(=O)NC | > 100 µM | > 100 µM |  | > 100 µM | > 100 µM | > 100 µM |  | > 100 µM | > 100 µM | > 100 µM |  |  |  |  |  |  |  |  |  | 
13 | Cc1c2cccc-2ccc2c1[nH]c1ccc(Br)cc12 | 25.2 µM | 14 µM | 22.4 µM | 6.11 µM | 24.4 µM | 32.2 µM | 6.29 µM | 17.2 µM | 13.4 µM | 27.2 µM |  |  |  |  |  |  |  |  |  | 
14 | Nc1nnc(N)n1NC(=O)C(=O)Nc1ccc([N+](=O)[O-])cc1 | > 100 µM | > 100 µM | > 100 µM | > 100 µM | > 100 µM | > 100 µM | > 100 µM | > 100 µM | > 100 µM | > 100 µM |  |  |  |  |  |  |  |  |  | 
15 | NNc1ccccc1Cl | > 100 µM | > 100 µM | > 100 µM | > 100 µM | > 100 µM | > 100 µM | > 100 µM | > 100 µM | > 100 µM | > 100 µM |  |  |  |  |  |  |  |  |  | 
16 | Nc1ccc(Nc2c3ccccc3nc3ccccc23)cc1 | > 10 µM | > 10 µM | > 10 µM | > 10 µM | 4.58 µM | > 10 µM | > 10 µM | > 10 µM | > 10 µM | > 10 µM |  |  |  |  |  |  |  |  |  | 
17 | O=C(O)C1=NNC(C(=O)O)=NN1 | > 100 µM | > 100 µM | > 100 µM | > 100 µM | > 100 µM | > 100 µM | > 100 µM | > 100 µM | > 100 µM | > 100 µM |  |  |  |  |  |  |  |  |  | 
18 | O=C1c2ccccc2C(=O)c2c1ccc(C(=O)O)c2-c1ccc2ccccc2c1 | 89.5 µM | 56.6 µM | > 100 µM | 81 µM | > 100 µM | > 100 µM | 59.3 µM | 98.1 µM | 39.4 µM | 88.8 µM |  |  |  |  |  |  |  |  |  | 
19 | Cc1cc(=O)oc2c1cc(OCC(=O)OCCN1CCCCC1)c1occ(C)c12 | > 100 µM | > 100 µM | > 100 µM | > 100 µM | > 100 µM | > 100 µM |  |  | > 100 µM | > 100 µM |  |  |  |  |  |  |  |  |  | 
20 | CC(CO)(CO)Nc1ncnc2ccccc12 | > 100 µM | > 100 µM | > 100 µM | > 100 µM | > 100 µM | > 100 µM | > 100 µM | > 100 µM | > 100 µM | > 100 µM |  |  |  |  |  |  |  |  |  | 
21 | NC(=O)Nc1cc(O)ccc1N=Nc1ccc(S(=O)(=O)Nc2ccccn2)cc1 | > 100 µM | > 100 µM | > 100 µM | > 100 µM | > 100 µM | > 100 µM | > 100 µM | > 100 µM | > 100 µM | > 100 µM |  |  |  |  |  |  |  |  |  | 
22 | C[n+]1ccc(-c2cc[n+](C)cc2)cc1 | > 100 µM | > 52.3 µM | > 100 µM | > 60.2 µM | > 100 µM | > 100 µM | > 34.2 µM | > 100 µM | > 35.6 µM | 30.3 µM |  |  |  |  |  |  |  |  |  | 
23 | Fc1ccc(-c2nnc3sc(COc4ccccc4Cl)nn23)cc1Cl | 74.5 µM | 48.7 µM | > 100 µM | > 100 µM | > 100 µM | > 100 µM | 36.3 µM | > 100 µM | 69.1 µM | > 100 µM | 31.9 µM | 30.2 µM | 17.7 µM | 37.8 µM | 39.2 µM | 32.7 µM | > 100 µM | 18 µM | 41.9 µM | 23.4 µM
24 | CC[C@H](C)C1=C(O)[N@+]2([O-])Oc3ccc(-c4c(O)c(O)c(-c5ccc(OC(C)=O)cc5)c(OC(C)=O)c4OC(C)=O)cc3O[C@]2([C@@H](C)CC)C(=O)N1O | 23.6 µM | > 50 µM | > 50 µM | > 50 µM | > 50 µM | > 50 µM | 18 µM | > 50 µM | > 50 µM | > 50 µM |  |  |  |  |  |  |  |  |  | 
25 | CC1(O)CC23CC1CCC2(C)C12CCCC(C)(C(=O)O1)C2CC3O (centres undefined) | > 100 µM | > 100 µM | > 100 µM | > 100 µM | > 100 µM | > 100 µM | > 100 µM | > 100 µM | > 100 µM | > 100 µM |  |  |  |  |  |  |  |  |  | 
26 | COc1c(Cl)cc(S(=O)O)cc1Cl |  |  |  | > 100 µM | > 100 µM | > 100 µM | > 100 µM | > 100 µM |  | > 100 µM |  |  |  |  |  |  |  |  |  | 
